{
  "source": "paper PMC2810227",
  "about": "“3-O-Methylfunicone, a Selective Inhibitor of Mammalian Y-Family DNA Polymerases from an Australian Sea Salt Fungal Strain” (Marine Drugs, 2009)",
  "key": {"[1]": {"biological_target": "T1, pol α from calf thymus (Bos taurus, UniProt A0AAA9TD94)", "T1 construct": "Pol α was purified from calf thymus; from tissue; host or cells: calf thymus", "T1 sequence (A0AAA9TD94 1-1441)": "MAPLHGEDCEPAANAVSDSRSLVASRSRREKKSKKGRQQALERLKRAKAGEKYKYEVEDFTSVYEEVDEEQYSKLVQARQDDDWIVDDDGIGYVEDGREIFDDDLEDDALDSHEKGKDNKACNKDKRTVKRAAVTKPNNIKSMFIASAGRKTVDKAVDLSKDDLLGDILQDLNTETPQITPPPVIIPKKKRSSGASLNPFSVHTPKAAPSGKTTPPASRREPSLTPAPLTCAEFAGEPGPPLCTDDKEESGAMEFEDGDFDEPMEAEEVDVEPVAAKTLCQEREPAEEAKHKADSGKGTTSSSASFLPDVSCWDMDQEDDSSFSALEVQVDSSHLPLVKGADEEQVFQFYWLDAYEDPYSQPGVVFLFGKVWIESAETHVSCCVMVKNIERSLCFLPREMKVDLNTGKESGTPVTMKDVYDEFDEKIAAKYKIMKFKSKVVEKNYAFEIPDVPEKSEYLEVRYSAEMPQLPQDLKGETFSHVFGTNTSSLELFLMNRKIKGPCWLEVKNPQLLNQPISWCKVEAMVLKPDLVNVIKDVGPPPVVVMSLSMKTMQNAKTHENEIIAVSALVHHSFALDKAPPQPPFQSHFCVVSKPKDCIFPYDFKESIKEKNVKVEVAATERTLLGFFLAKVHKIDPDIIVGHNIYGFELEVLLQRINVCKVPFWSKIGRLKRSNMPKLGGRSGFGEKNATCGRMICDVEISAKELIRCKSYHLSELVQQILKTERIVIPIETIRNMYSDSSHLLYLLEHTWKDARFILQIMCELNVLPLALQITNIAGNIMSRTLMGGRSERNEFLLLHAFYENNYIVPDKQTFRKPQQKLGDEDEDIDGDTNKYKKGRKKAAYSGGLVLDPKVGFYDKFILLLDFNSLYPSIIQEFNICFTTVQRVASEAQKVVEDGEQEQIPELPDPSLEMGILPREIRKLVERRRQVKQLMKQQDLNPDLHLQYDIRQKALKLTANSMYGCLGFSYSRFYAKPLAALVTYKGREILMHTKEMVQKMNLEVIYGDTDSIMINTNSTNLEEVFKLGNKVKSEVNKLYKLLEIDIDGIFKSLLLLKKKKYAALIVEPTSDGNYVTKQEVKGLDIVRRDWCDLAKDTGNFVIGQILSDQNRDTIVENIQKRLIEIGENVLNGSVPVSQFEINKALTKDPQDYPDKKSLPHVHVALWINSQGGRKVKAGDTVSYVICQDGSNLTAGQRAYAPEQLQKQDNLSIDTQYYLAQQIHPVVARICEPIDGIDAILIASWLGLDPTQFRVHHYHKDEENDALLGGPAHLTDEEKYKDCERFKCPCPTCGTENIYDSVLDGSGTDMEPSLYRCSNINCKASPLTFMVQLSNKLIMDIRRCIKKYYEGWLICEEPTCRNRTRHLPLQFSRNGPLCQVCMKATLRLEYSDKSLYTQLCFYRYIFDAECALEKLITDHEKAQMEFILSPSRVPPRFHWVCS", "assay": "DNA polymerase assay, pol α", "format": "biochemical", "conditions": "100 μM", "text": "(§1) Pol α was purified from calf thymus by immuno-affinity column chromatography, as described by Tamai et al.. Recombinant rat pol β was purified from E. coli JMpβ5, as described by Date et al.. The human pol γ catalytic gene was cloned into pFastBac. Histidine-tagged enzyme was expressed using the BAC-TO-BAC HT Baculovirus Expression System according to the supplier’s manual (Life Technologies, MD, USA) and purified using ProBoundresin (Invitrogen Japan, Tokyo, Japan). Human pols δ and ɛ were purified by nuclear fractionation of human peripheral blood cancer cells (Molt-4) using the second subunit of pols δ and ɛ-conjugated affinity column chromatography, respectively. A truncated form of human pol η (residues 1–511) tagged with His6 at its C-terminal was expressed in E. coli cells and purified as described by Kusumoto et al.. A recombinant mouse pol ι tagged with His6 at its C-terminal was expressed and purified by Ni-NTA column chromatography as described elsewhere (Masutani et al., in preparation). […]\n(§2) The compounds were dissolved in distilled dimethyl sulfoxide (DMSO) at various concentrations and sonicated for 30 sec. […] Activity without the inhibitor was considered 100%, and the remaining activity at each concentration of the inhibitor was determined relative to this value. […]"}, "[2]": {"biological_target": "T2, T4 pol (Enterobacteria phage T4, UniProt P04415)", "T2 construct": "purchased Takara Bio (Tokyo, Japan)", "T2 sequence (P04415 whole entry)": "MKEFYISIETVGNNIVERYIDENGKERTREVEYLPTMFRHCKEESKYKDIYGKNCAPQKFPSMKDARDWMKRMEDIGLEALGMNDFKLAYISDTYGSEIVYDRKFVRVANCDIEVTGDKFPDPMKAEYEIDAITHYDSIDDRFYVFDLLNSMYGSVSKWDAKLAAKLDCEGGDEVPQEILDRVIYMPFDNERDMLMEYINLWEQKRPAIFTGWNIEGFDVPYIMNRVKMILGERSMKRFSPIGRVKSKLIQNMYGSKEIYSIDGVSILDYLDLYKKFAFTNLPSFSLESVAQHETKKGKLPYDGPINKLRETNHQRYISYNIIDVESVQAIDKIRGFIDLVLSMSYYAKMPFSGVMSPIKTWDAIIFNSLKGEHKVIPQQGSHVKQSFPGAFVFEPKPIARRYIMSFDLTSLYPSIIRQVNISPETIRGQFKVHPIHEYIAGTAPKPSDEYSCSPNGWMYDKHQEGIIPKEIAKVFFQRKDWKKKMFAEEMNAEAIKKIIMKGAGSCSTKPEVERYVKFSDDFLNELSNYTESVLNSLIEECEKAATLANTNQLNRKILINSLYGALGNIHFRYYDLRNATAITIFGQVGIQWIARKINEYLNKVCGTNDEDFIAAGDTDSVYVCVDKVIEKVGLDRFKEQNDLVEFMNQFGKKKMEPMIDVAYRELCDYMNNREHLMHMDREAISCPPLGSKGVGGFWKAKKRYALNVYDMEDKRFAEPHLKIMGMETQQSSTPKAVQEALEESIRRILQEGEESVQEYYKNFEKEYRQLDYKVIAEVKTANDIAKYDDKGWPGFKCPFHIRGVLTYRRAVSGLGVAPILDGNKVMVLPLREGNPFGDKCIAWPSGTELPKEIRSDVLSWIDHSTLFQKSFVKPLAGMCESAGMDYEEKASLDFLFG", "assay": "DNA polymerase assay, T4 pol", "format": "biochemical", "conditions": "100 μM", "text": "as §1, §2"}, "[3]": {"biological_target": "T3, fruit fly pol δ (Drosophila melanogaster, UniProt P54358)", "T3 construct": "purified from early embryos of Drosophila melanogaster; from tissue; host or cells: early embryos of Drosophila melanogaster", "T3 sequence (P54358 whole entry)": "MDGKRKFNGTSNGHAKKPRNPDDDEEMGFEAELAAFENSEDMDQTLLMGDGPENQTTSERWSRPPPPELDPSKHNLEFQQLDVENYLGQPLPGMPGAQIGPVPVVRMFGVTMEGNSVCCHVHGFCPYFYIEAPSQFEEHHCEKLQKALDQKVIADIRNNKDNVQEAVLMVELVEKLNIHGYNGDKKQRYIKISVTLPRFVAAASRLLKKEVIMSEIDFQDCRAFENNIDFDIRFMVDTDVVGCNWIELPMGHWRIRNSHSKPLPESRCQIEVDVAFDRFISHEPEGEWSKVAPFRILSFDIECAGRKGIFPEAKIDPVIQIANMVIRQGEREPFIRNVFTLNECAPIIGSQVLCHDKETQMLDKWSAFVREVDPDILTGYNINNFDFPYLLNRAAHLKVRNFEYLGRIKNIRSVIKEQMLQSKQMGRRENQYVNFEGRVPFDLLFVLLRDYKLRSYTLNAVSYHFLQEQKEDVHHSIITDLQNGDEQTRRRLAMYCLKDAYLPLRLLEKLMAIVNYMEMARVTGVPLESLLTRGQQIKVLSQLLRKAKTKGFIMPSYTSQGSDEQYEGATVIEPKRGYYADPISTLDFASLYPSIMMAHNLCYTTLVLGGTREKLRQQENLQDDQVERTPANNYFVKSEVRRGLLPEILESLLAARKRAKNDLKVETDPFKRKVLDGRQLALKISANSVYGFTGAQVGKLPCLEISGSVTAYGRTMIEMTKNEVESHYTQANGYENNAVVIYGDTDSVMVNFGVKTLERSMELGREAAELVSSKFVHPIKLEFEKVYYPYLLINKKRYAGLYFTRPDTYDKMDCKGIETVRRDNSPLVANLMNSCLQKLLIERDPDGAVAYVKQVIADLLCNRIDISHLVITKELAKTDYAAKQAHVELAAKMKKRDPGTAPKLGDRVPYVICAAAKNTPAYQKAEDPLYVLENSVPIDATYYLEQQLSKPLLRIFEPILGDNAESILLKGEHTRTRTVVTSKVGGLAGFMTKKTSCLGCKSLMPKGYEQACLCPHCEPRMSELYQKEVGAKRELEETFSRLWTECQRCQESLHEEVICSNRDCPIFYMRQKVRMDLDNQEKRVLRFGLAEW", "assay": "DNA polymerase assay, insect pol δ", "format": "biochemical", "conditions": "100 μM"}, "[4]": {"tested_on": "HCT116 (colon carcinoma cells)", "assay": "Cancer cell growth, MTT assay, HCT116", "format": "cell-based, human", "procedure": "Figure 5. (A) Human cancer cell growth inhibition dose-response curves of 3-O-methyl-funicone (1). Various concentrations (0 to 150 μM) of compound 1 were incubated with human colon carcinoma (HCT116) cells (circle) and human cervix carcinoma (HeLa) cells (square) for 24 h. Rate of cell growth was determined by MTT assay as described in the Experimental section. Data are shown as the means ± SEM of five independent experiments. (B) Clonogenic survival of UV-treated HeLa cells by compound 1. Various concentrations (0 to 100 μM) of compound 1 were incubated with 10 J/m^2 UV-treated (closed circle) or untreated (open circle) HeLa cells. After 7 days, the number of colonies in each treatment group was counted. Values are the means ± SEM of two independent experiments.\nHuman colon carcinoma cell line, HCT116, was a kind gift from Dr. Bert Vogelstein (Johns Hopkins University, Baltimore, […], USA). Human cervix carcinoma cell line, HeLa, was obtained from Health Science Research Resources Bank (Osaka, Japan). The cells were maintained in McCoy’s 5A medium supplemented with 10% FBS, sodium bicarbonate (2 g/L) and streptomycin (100 μg/mL). The cells were cultured at 37 °C in standard medium in a humidified atmosphere of 5% CO2-95% air. […] After incubation for 24 h, the survival rate was determined by MTT (3-(4,5-dimethylthiazol-2-yl)-2,5-diphenyl tetrazolium bromide) assay."}, "[5]": {"biological_target": "T4, human topoisomerase II (Homo sapiens, UniProt P11388)", "T4 construct": "Purified human placenta DNA topoisomerases I and II were purchased from TopoGen, Inc; purchased TopoGen, Inc. (Columbus, OH, USA); host or cells: human placenta (tissue-purified)", "T4 sequence (P11388 whole entry)": "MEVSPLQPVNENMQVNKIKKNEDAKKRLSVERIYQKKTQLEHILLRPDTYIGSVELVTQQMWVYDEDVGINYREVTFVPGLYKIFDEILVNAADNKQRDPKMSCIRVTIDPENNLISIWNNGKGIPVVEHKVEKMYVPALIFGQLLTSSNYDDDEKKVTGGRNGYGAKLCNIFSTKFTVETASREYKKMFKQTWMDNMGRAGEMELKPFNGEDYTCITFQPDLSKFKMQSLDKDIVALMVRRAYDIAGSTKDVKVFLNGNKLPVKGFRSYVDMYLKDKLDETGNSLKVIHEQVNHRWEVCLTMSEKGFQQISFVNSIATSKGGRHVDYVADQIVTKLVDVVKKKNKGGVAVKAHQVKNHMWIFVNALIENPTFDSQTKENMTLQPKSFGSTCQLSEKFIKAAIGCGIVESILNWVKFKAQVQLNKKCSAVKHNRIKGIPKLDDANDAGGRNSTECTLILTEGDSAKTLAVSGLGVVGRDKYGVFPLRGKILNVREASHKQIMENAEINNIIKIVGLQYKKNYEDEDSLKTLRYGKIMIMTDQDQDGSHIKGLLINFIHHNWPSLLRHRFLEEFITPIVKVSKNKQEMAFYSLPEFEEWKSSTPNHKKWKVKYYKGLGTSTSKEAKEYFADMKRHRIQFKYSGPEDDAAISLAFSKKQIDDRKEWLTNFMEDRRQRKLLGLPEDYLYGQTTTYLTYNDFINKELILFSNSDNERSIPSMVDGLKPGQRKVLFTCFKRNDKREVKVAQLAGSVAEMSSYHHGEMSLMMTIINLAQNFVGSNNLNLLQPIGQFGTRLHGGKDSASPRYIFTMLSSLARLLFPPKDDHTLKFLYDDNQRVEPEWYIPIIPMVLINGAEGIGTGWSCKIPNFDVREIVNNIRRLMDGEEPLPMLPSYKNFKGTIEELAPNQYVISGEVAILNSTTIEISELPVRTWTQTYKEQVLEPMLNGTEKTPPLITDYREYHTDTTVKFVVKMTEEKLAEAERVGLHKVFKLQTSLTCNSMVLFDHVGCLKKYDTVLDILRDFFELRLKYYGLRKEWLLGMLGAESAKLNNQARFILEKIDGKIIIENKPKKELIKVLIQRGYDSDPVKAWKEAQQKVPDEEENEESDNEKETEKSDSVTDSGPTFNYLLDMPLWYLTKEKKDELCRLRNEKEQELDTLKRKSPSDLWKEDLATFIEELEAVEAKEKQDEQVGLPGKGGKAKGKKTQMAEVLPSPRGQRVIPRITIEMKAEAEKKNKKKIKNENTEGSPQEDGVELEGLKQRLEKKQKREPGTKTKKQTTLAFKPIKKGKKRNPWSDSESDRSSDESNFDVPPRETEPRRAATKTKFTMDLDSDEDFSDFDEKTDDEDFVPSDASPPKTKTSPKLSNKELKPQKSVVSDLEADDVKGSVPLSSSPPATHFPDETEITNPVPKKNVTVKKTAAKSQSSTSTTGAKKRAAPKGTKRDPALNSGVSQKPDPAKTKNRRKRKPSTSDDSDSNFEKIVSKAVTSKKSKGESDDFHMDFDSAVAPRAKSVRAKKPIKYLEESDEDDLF", "assay": "DNA topoisomerase II assay", "format": "biochemical", "conditions": "100 μM", "text": "as §1, with “al..” for “al.. A recombinant mouse pol ι tagged with His6 at its C-terminal was expressed and purified by Ni-NTA column chromatography as described elsewhere (Masutani et al., in preparation).”\nThe activities of calf primase of pol α, human telomerase, T7 RNA polymerase, mouse IMP dehydrogenase, human DNA topoisomerases I and II, T4 polynucleotide kinase and bovine DNase I were measured in standard assays according to the manufacturer’s specifications, as described by Tamiya-Koizumi et al., Oda et al., Nakayama et al., Mizushina et al., Ishimaru et al., Soltis et al. and Lu et al., respectively."}},
  "data": [
    {"smiles": "C/C=C/c1occ(C(=O)c2c(OC)cc(OC)cc2C(=O)OC)c(=O)c1OC", "note": "[compound 1, 3-O-methylfunicone]", "values": [
      {"measurement": "effect on pol α activity", "setting": "[1]", "value": "hardly influenced"},
      {"measurement": "effect on T4 pol activity", "setting": "[2]", "value": "no effect"},
      {"measurement": "effect on fruit fly pol δ activity", "setting": "[3]", "value": "hardly influenced"},
      {"measurement": "LD50, cell growth", "setting": "[4]; HCT116, 24 h, MTT assay", "value": 63.8, "unit": "µM"},
      {"measurement": "cell growth inhibition dose relative to the enzyme inhibitory concentration", "setting": "[4]; LD50 (HCT116 and HeLa) versus IC50 for Y-family pols", "value": "1.3 to 5.1", "unit": "fold"},
      {"measurement": "effect on human topoisomerase II activity", "setting": "[5]", "value": "did not influence"}
    ]}
  ]
}
